This note sets out measurements from patent US20260068885A1, “HERBICIDAL COMPOSITIONS” (BAYER AKTIENGESELLSCHAFT, priority 2022, published 2026).

What all share (experiment): Post-emergence herbicidal action against harmful plants (greenhouse)
What all share (format): in vivo

In one test the test system is Cyperus iria (CYPIR). As to the method: (§1) Seeds of monocotyledonous and dicotyledonous weed and crop plants are laid out in sandy loam soil in wood-fibre pots, covered with soil and cultivated in a greenhouse under good growth conditions. 2 to 3 weeks after sowing, the test plants are treated at the one-leaf stage. The compounds of the invention, formulated in the form of wettable powders (WP) or as emulsion concentrates (EC), are then sprayed onto the green parts of the plants in the form of an aqueous suspension or emulsion at a water application rate equivalent to 600 to 800 l/ha, with addition of 0.2% wetting agent. After the test plants have been […], the action of the preparations is assessed visually in comparison to untreated controls (herbicidal action in percent (%): 100% activity=the plants have died, 0% activity=like control plants). […] The tables below illustrate, in an illustrative manner, the post-emergence herbicidal action of the compounds of the invention, the herbicidal activity being stated in percent.
(§2) In the tables that follow, the abbreviations mean the following: • E: means the synergism value to be expected according to the Colby formula. • Δ SYN: means the difference between the actual and expected synergism value. • DAT: means days after treatment.

In the next test the test system is Solanum nigrum (SOLNI). As to the method:
as §1, §2

In test [1] the test system is Brachiaria platyphylla (BRAPP). As to the method:
(§3) Seeds of monocotyledonous and dicotyledonous weed and crop plants are laid out in sandy loam soil in wood-fibre pots, covered with soil and cultivated in a greenhouse under good growth conditions. 2 to 3 weeks after sowing, the test plants are treated at the one-leaf stage. The compounds of the invention, formulated in the form of wettable powders (WP) or as emulsion concentrates (EC), are then sprayed onto the green parts of the plants in the form of an aqueous suspension or emulsion at a water application rate equivalent to 600 to 800 l/ha, with addition of 0.2% wetting agent. After the test plants have been left to stand in the greenhouse under optimal growth conditions for about 3 weeks, the action of the preparations is assessed visually in comparison to untreated controls (herbicidal action in percent (%): 100% activity=the plants have died, 0% activity=like control plants). […] The tables below illustrate, in an illustrative manner, the post-emergence herbicidal action of the compounds of the invention, the herbicidal activity being stated in percent.
as §2

The test system of test [2] is Sorghum halepense (SORHA). As for the experimental part: as §3, §2
Test [3] concerns Xanthium strumarium (XANST).
In test [4] the test system is Abutilon theophrasti (ABUTH). As to the method:
as §1, §2

For the next test, the system named is Setaria viridis (SETVI). As for the experimental part:
as §1, §2

The next test has as its system Emex australis (EMEAU). As for the experimental part: as §3, §2
Test [5] relates to Euphorbia heterophylla (EPHHL). As to the method:
as §3, §2

Test [6] relates to Pharbitis purpurea (PHBPU).
Test [7] relates to Erigeron bonariensis (ERIBO). As to the method:
as §1, §2

The subject of test [8] is Polygonum convolvulus (POLCO).
Test [9] deals with Xanthium strumarium (XANST). As to the method:
as §3, §2
The source holds these as a separate data set.

Setting [10] is: application rate 0.25 g a.i./ha.
The mark [11] stands for this setting: application rate 0.025 g a.i./ha.
The mark [12] stands for this setting: application rate 0.00625 g a.i./ha.
Where [13] appears, read: application rate 0.025 g a.i./ha, 21 DAT.

Take `COC(=O)CCNC(=O)C(C)Sc1cc(-n2c(=O)cc(C(F)(F)F)n(C)c2=O)c(F)cc1Cl` (centres unmarked) [tiafenacil]: in the test on Cyperus iria (CYPIR) (CYPIR 21 DAT, 0.25 g a.i./ha), the Herbicidal efficacy was 88%. For the same molecule, in the test with Solanum nigrum (SOLNI) (application rate 1 g a.i./ha), the “Herbicidal efficacy [%] against SOLNI 10 DAT” value worked out at 88% and the “Herbicidal efficacy [%] against SOLNI 21 DAT” value was found to be 60%. Besides, in test [1] (BRAPP 21 DAT, 1 g a.i./ha), the Herbicidal efficacy is 40%. The “Herbicidal efficacy [%] against SORHA 21 DAT” value in [2] (application rate 1 g a.i./ha) worked out at 85%. Moreover, in test [3] (application rate 1 g a.i./ha), the “Herbicidal efficacy [%] against XANST 10 DAT” value is 88% and the “Herbicidal efficacy [%] against XANST 21 DAT” value turned out to be 85%.

Take `C#CCN1C(=O)C(F)(F)Oc2cc(F)c(-n3c(=O)n(C)c(=S)n(C)c3=O)cc21` [trifludimoxazin]: the Herbicidal efficacy in test [4] (ABUTH 10 DAT, 0.25 g a.i./ha) amounted to 88%; in test [4] (ABUTH 10 DAT, 1 g a.i./ha) it was 85%; in test [4] (ABUTH 21 DAT, 0.25 g a.i./ha), 80%; in [4] (ABUTH 21 DAT, 1 g a.i./ha) it was 75%; with Setaria viridis (SETVI) (SETVI 10 DAT, 0.25 g a.i./ha), 85%; in the test with Setaria viridis (SETVI) (SETVI 21 DAT, 0.25 g a.i./ha) it was 70%. The Herbicidal efficacy in [1] (BRAPP 10 DAT, 1 g a.i./ha) is reported as 80%; with Emex australis (EMEAU) (EMEAU 21 DAT, 1 g a.i./ha), 85%; in [5] (EPHHL 21 DAT, 0.25 g a.i./ha), 88%; in test [6] (PHBPU 21 DAT, 1 g a.i./ha) it was 80%. The “Herbicidal efficacy [%] against SOLNI 10 DAT” value in the test on Solanum nigrum (SOLNI) (application rate 1 g a.i./ha) was determined as 88%. The “Herbicidal efficacy [%] against SOLNI 21 DAT” value in the test with Solanum nigrum (SOLNI) (application rate 1 g a.i./ha) was found to be 60%. Further, the “Herbicidal efficacy [%] against SORHA 10 DAT” value in [2] (setting [10]) is given as 70%; in [2] (application rate 1 g a.i./ha), 85%. For the same molecule, the “Herbicidal efficacy [%] against SORHA 21 DAT” value in test [2] (setting [10]) turned out to be 40%; in test [2] (application rate 1 g a.i./ha) it was 70%.

As to `Cc1cccc(C)c1-n1c(=O)c2cc(C(=O)C3C(=O)CCCC3=O)ccc2n(C)c1=O` [benquitrione], the Herbicidal efficacy is 20% in test [4] (ABUTH 10 DAT, 1.5 g a.i./ha); 40% in test [4] (ABUTH 10 DAT, 6 g a.i./ha); 10% in [4] (ABUTH 21 DAT, 6 g a.i./ha); 40% with Cyperus iria (CYPIR) (CYPIR 10 DAT, 1.5 g a.i./ha); 30% in the test on Cyperus iria (CYPIR) (CYPIR 21 DAT, 1.5 g a.i./ha); 85% in test [7] (ERIBO 10 DAT, 6 g a.i./ha). The Herbicidal efficacy in [7] (ERIBO 21 DAT, 6 g a.i./ha) turned out to be 85%; in the test on Setaria viridis (SETVI) (SETVI 10 DAT, 6 g a.i./ha) it was 88%; with Setaria viridis (SETVI) (SETVI 21 DAT, 1.5 g a.i./ha) it was 50%; with Solanum nigrum (SOLNI) (SOLNI 21 DAT, 6 g a.i./ha), 85%; in test [1] (BRAPP 10 DAT, 1.5 g a.i./ha), 20%; in test [1] (BRAPP 10 DAT, 6 g a.i./ha), 80%. Moreover, the Herbicidal efficacy in test [1] (BRAPP 21 DAT, 1.5 g a.i./ha) was found to be 10%; in [1] (BRAPP 21 DAT, 6 g a.i./ha) it was 20%; in [6] (PHBPU 10 DAT, 6 g a.i./ha), 40%; in test [6] (PHBPU 21 DAT, 6 g a.i./ha) it was 20%; in test [8] (POLCO 10 DAT, 6 g a.i./ha) it was 20%. Further, the “Herbicidal efficacy [%] against SORHA 10 DAT” value was 10% in [2] (application rate 1.5 g a.i./ha) and 20% in test [2] (application rate 6 g a.i./ha). Besides, the “Herbicidal efficacy [%] against SORHA 21 DAT” value in test [2] (application rate 1.5 g a.i./ha) was 0%; in test [2] (application rate 6 g a.i./ha), 10%. Moreover, in test [3] (application rate 6 g a.i./ha), the “Herbicidal efficacy [%] against XANST 21 DAT” value is given as 50%.

Consider `C=C[C@]1(C(=O)N[C@H]2CO[C@@H](C(=O)OC)C2)CC(c2cc(F)cc(F)c2)=NO1` (relative stereo) [P1, methyl (2R*,4R*)-4-[[(5S)-3-(3,5-difluorophenyl)-5-vinyl-4H-isoxazole-5-carbonyl]amino]tetrahydrofuran-2-carboxylate], for which the Herbicidal efficacy in [4] (ABUTH 10 DAT, 0.3 g a.i./ha) is on record as 70%; in test [4] (ABUTH 21 DAT, 1.2 g a.i./ha) it was 85%; in the test on Solanum nigrum (SOLNI) (SOLNI 10 DAT, 0.3 g a.i./ha) it was 40%; in the test on Emex australis (EMEAU) (EMEAU 10 DAT, 1.2 g a.i./ha), 70%; with Emex australis (EMEAU) (EMEAU 21 DAT, 1.2 g a.i./ha) it was 80%. In addition, the “Herbicidal efficacy [%] against SORHA 21 DAT” value in test [2] (application rate 0.3 g a.i./ha) and in test [2] (application rate 1.2 g a.i./ha) was 90% throughout. For the same molecule, in [9] (application rate 0.3 g a.i./ha), the “Herbicidal efficacy [%] against XANST 21 DAT” value is 40%. For the same molecule, the “Herbicidal efficacy [%] against XANST 10 DAT” value in test [3] (application rate 0.3 g a.i./ha) is given as 60%.

In the case of `CCn1ncc(C(=O)c2ccc(S(C)(=O)=O)c(OCCOC)c2C)c1OC(C)OC(=O)OC` (centres unmarked) [tolpyralate], the Herbicidal efficacy in the test on Cyperus iria (CYPIR) (CYPIR 10 DAT, 0.5 g a.i./ha) came out at 40%; in the test with Cyperus iria (CYPIR) (CYPIR 21 DAT, 0.5 g a.i./ha) it was 20%; with Cyperus iria (CYPIR) (CYPIR 21 DAT, 2 g a.i./ha) it was 30%; in [7] (ERIBO 10 DAT, 2 g a.i./ha), 90%; in [7] (ERIBO 21 DAT, 2 g a.i./ha), 85%; in the test on Setaria viridis (SETVI) (SETVI 21 DAT, 0.5 g a.i./ha), 60%. In addition, the Herbicidal efficacy is recorded as 88% in the test with Setaria viridis (SETVI) (SETVI 21 DAT, 2 g a.i./ha); 30% in [1] (BRAPP 10 DAT, 0.5 g a.i./ha); 20% in test [1] (BRAPP 21 DAT, 0.5 g a.i./ha); 80% in test [1] (BRAPP 21 DAT, 2 g a.i./ha); 10% in test [6] (PHBPU 10 DAT, 0.5 g a.i./ha); 10% in test [6] (PHBPU 21 DAT, 0.5 g a.i./ha). The Herbicidal efficacy in test [8] (POLCO 10 DAT, 0.5 g a.i./ha) was determined as 30%; in test [8] (POLCO 21 DAT, 0.5 g a.i./ha), 20%. The “Herbicidal efficacy [%] against SOLNI 21 DAT” value in the test with Solanum nigrum (SOLNI) (application rate 0.5 g a.i./ha) is given as 85%. In [2] (application rate 2 g a.i./ha), the “Herbicidal efficacy [%] against SORHA 10 DAT” value came to 85%. In addition, the “Herbicidal efficacy [%] against SORHA 21 DAT” value in test [2] (application rate 2 g a.i./ha) was 50%. In addition, the entries for the “Herbicidal efficacy [%] against XANST 21 DAT” value in test [9] (application rate 0.5 g a.i./ha) and in test [9] (application rate 2 g a.i./ha) were 30% and 70%, respectively.

For the molecule `COC(=O)[C@@H](C)O/N=C/c1cc(-n2c(=O)cc(C(F)(F)F)n(C)c2=O)c(F)cc1Cl` [flufenoximacil], the “Herbicidal efficacy [%] against ERIBO 21 DAT” value in test [7] (setting [11]) is 40%; in [7] (application rate 0.1 g a.i./ha) it was 60%. Also, the “Herbicidal efficacy [%] against EMEAU 10 DAT” value in the test on Emex australis (EMEAU) (application rate 0.00625 g a.i./ha, 10 DAT) is reported as 50%. Also, the “Herbicidal efficacy [%] against EMEAU 21 DAT” value in the test on Emex australis (EMEAU) (application rate 0.00625 g a.i./ha, 21 DAT) stood at 10%. Further, the “Herbicidal efficacy [%] against EPHHL 21 DAT” value in test [5] (setting [12]) was 40%; in test [5] (setting [11]), 88%. The “Herbicidal efficacy [%] against SORHA 10 DAT” value in [2] (setting [12]) was determined as 20%. Moreover, in [9] (setting [12]), the “Herbicidal efficacy [%] against XANST 21 DAT” value came out at 10%. Also, the “Herbicidal efficacy [%] against PHBPU 21 DAT” value in test [6] (setting [13]) was determined as 75%. The “Herbicidal efficacy [%] against POLCO 21 DAT” value in test [8] (setting [13]) came to 60%.
